Measurements as given in PubChem BioAssay (NCI).
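48-hour exposure; five concentrations; linearly interpolated endpoints. The concentration for 50% growth inhibition is given as GI50. TGI: total growth inhibition.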

Experiments:
Experiment in all cases: inhibition of tumour cell growth, NCI panel, 48 h
BT-549 breast = test system: BT-549 breast
CCRF-CEM leukemia = test system: CCRF-CEM leukemia
HOP-62 NSCLC = test system: HOP-62 NSCLC
HT29 colon = test system: HT29 colon
MOLT-4 leukemia = test system: MOLT-4 leukemia
OVCAR-3 ovarian = test system: OVCAR-3 ovarian
SK-MEL-2 melanoma = test system: SK-MEL-2 melanoma
SK-MEL-28 melanoma = test system: SK-MEL-28 melanoma
SNB-75 CNS = test system: SNB-75 CNS
UACC-62 melanoma = test system: UACC-62 melanoma

Row | Structure (SMILES) | GI50 (BT-549 breast) [µM] | TGI (BT-549 breast) [µM] | GI50 (CCRF-CEM leukemia) [µM] | TGI (CCRF-CEM leukemia) [µM] | GI50 (HOP-62 NSCLC) [µM] | TGI (HOP-62 NSCLC) [µM] | GI50 (HT29 colon) [µM] | TGI (HT29 colon) [µM] | GI50 (MOLT-4 leukemia) [µM] | TGI (MOLT-4 leukemia) [µM] | GI50 (OVCAR-3 ovarian) [µM] | TGI (OVCAR-3 ovarian) [µM] | GI50 (SK-MEL-2 melanoma) [µM] | TGI (SK-MEL-2 melanoma) [µM] | GI50 (SK-MEL-28 melanoma) [µM] | TGI (SK-MEL-28 melanoma) [µM] | GI50 (SNB-75 CNS) [µM] | TGI (SNB-75 CNS) [µM] | GI50 (UACC-62 melanoma) [µM] | TGI (UACC-62 melanoma) [µM]
1 | COc1cc(C(=O)Nc2cc(OC)c3ccn(C)c3c2)cc2c1C[C@]1(C)CC[C@@H](O)C(C)(C)[C@H]1O2 | 0.558 | 30.3 | 0.0927 | > 100 | 0.77 | 13.1 | 1.68 | 13.8 | 0.21 | 1.45 | 1.68 | 4.86 | 0.323 | 4.48 | 1.77 | 37.1 | 0.0521 | 2.19 | 0.257 | 1.31
2 | O=c1oc2ccc(Br)cc2c(=O)n1-c1ccc(I)cc1F | 0.341 | 1.39 | 0.625 | 6.82 | 0.774 | 7.76 | 3.31 | 12.5 | 0.579 | 3.22 | 0.336 | 8.52 | 0.252 | 0.791 | 0.347 | 1.75 | 0.219 | 1.36 | 0.264 | 0.886
3 | Cn1c(/C=C/[N+](=O)[O-])cc2ccccc21 | 1.88 | 3.77 | 16.9 | > 100 | 8.39 | 27.6 | 1.68 | 4.02 | 5.36 | 58 | 1.66 | 3.49 | 15.3 | 68.3 | 15.7 | 34.5 | 3.36 | 28.4 | 11.4 | 31
4 | CC(=O)Nc1ccc(COC(O)CN2CCCCC2)cc1[N+](=O)[O-] (configuration not stated) | – | > 100 | – | > 100 | – | – | – | > 100 | – | > 100 | – | > 100 | – | > 100 | – | > 100 | – | > 100 | – | > 100
5 | Cn1c(=O)c(Oc2ccc(F)cc2F)cc2cnc(NC3CCS(=O)(=O)CC3)nc21 | > 25 | > 25 | > 25 | > 25 | > 14.8 | > 25 | > 25 | > 25 | > 25 | > 25 | > 25 | > 25 | > 25 | > 25 | > 25 | > 25 | > 14.2 | > 25 | > 25 | > 25
6 | CC(C)(C)c1c2c(c(C(C)(C)C)c3c1OCN(Cc1ccccc1)C3)OCN(Cc1ccccc1)C2 | – | 39.4 | – | > 100 | – | 53.5 | – | 37.6 | – | 50.4 | – | 32.4 | – | 51.5 | – | > 100 | – | > 100 | – | 38.7
7 | O=C(O)c1ccc(C(=O)O)c(C(=O)Nc2ccc3c(c2)C(=O)c2ccccc2-3)c1 | – | > 100 | – | > 100 | – | > 100 | – | > 100 | – | > 100 | – | > 100 | – | > 100 | – | > 100 | – | > 100 | – | > 100
8 | COc1ccc(-n2ccnc2-c2cc(OC)c(OC)c(OC)c2)cc1 | 5.03 | > 100 | 2.99 | > 100 | 3.59 | > 100 | 1.86 | – | 5.75 | > 100 | 1.58 | 5.03 | 7.27 | > 100 | 2.99 | > 100 | 2.19 | 6.31 | 2.61 | 27.3
9 | CCCCCCCCC(=O)OCC(CS[As](C)C)OC(=O)CCCCCCCC (configuration not stated) | 4.78 | 19.1 | 0.396 | 11.5 | 15.1 | 53.1 | 1.51 | 17.3 | 0.326 | 2.21 | 0.191 | 0.583 | 13.2 | 58.9 | 1.12 | 16.2 | 5.44 | 23.5 | 0.904 | 15
10 | CN1C/C=C/CCOc2cccc(c2)-c2ccnc(n2)Nc2cccc(c2)C1 | 0.0398 | 0.21 | 0.0386 | – | 0.0422 | 0.376 | 0.0376 | 0.416 | 0.0396 | 0.959 | 0.0336 | 1.23 | 0.0374 | 0.125 | 0.0349 | 0.188 | 0.039 | 0.184 | 0.0328 | 0.128
11 | COc1cc(-c2c(C#N)c(N)nc(N3CCOCC3)c2C#N)cc(OC)c1OC | > 100 | > 100 | > 100 | > 100 | 30.9 | > 100 | > 100 | > 100 | > 100 | > 100 | 68.8 | > 100 | > 100 | > 100 | > 100 | > 100 | 1.64 | 54.4 | 36.9 | > 100
12 | CC(C)(C)CC(N)=O | – | > 100 | – | > 100 | – | > 100 | – | > 100 | – | – | – | > 100 | – | > 100 | – | > 100 | – | > 100 | – | > 100
13 | OCc1ccc(N2CCc3ccccc3C2)cc1Cl | 17.7 | 40.8 | 27.3 | 99.6 | 0.0222 | 24.7 | < 0.02 | > 55.4 | 27.2 | > 78.7 | < 0.0161 | 0.0389 | – | – | 23 | > 82.9 | 15.9 | 57.7 | < 0.01 | 0.144
14 | CC(=O)c1cc(C(=O)c2ccc3c(c2)Sc2ccccc2N3)c2cc(C)ccn12 | 0.251 | > 100 | 0.257 | > 100 | 0.146 | > 100 | 0.0627 | > 100 | 0.329 | > 100 | 0.0323 | 0.112 | 81.4 | > 100 | 6.79 | > 100 | 0.0416 | > 100 | – | –
